Assay results taken from PubChem BioAssay (NCI).
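Assay format: 96-well plates, 48-hour exposure. Here, GI50 denotes the concentration required for 50% inhibition of growth. TGI: concentration producing complete growth inhibition.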

Columns and labels:
Test in all cases: NCI-60 cell line screen, 48 h
[1] = tested on: 786-0 renal
[2] = tested on: A498 renal
[3] = tested on: A549 NSCLC
[4] = tested on: ACHN renal
[5] = tested on: BT-549 breast
[6] = tested on: CAKI-1 renal
[7] = tested on: CCRF-CEM leukemia
[8] = tested on: COLO 205 colon
[9] = tested on: DU-145 prostate
[10] = tested on: EKVX NSCLC
[11] = tested on: HCC-2998 colon
[12] = tested on: HCT-116 colon
[13] = tested on: HCT-15 colon
[14] = tested on: HL-60(TB) leukemia
[15] = tested on: HOP-62 NSCLC
[16] = tested on: HOP-92 NSCLC
[17] = tested on: HS 578T breast
[18] = tested on: HT29 colon
[19] = tested on: IGROV1 ovarian
[20] = tested on: K-562 leukemia
[21] = tested on: KM12 colon
[22] = tested on: LOX IMVI melanoma
[23] = tested on: M14 melanoma
[24] = tested on: MALME-3M melanoma
[25] = tested on: MCF7 breast
[26] = tested on: MDA-MB-231 breast
[27] = tested on: MDA-MB-435
[28] = tested on: MDA-MB-468 breast
[29] = tested on: MOLT-4 leukemia
[30] = tested on: NCI-H226 lung
[31] = tested on: NCI-H23 lung
[32] = tested on: NCI-H460 lung
[33] = tested on: NCI-H522 lung
[34] = tested on: NCI/ADR-RES ovarian
[35] = tested on: OVCAR-3 ovarian
[36] = tested on: OVCAR-4 ovarian
[37] = tested on: OVCAR-5 ovarian
[38] = tested on: OVCAR-8 ovarian
[39] = tested on: PC-3 prostate
[40] = tested on: RPMI-8226 leukemia
[41] = tested on: RXF 393 renal
[42] = tested on: SF-268 CNS
[43] = tested on: SF-295 CNS
[44] = tested on: SF-539 CNS
[45] = tested on: SK-MEL-2 melanoma
[46] = tested on: SK-MEL-28 melanoma
[47] = tested on: SK-MEL-5 melanoma
[48] = tested on: SK-OV-3 ovarian
[49] = tested on: SN12C renal
[50] = tested on: SNB-19 CNS
[51] = tested on: SNB-75 CNS
[52] = tested on: SR leukemia
[53] = tested on: SW-620 colon
[54] = tested on: T-47D breast
[55] = tested on: TK-10 renal
[56] = tested on: U251 CNS
[57] = tested on: UACC-257 melanoma
[58] = tested on: UACC-62 melanoma
[59] = tested on: UO-31 renal

CN1C(=O)N(C)C2SC(N/N=C/c3cccs3)=NC21 (stereo not drawn)
GI50 [1]: 14.3 µM
TGI [1]: > 100 µM
GI50 [2]: 22.7 µM
TGI [2]: > 100 µM
GI50 [3]: 9.64 µM
TGI [3]: > 100 µM
GI50 [4]: 12 µM
TGI [4]: > 100 µM
GI50 [5]: 3.61 µM
TGI [5]: > 100 µM
GI50 [6]: 4.12 µM
TGI [6]: > 100 µM
GI50 [7]: 3.96 µM
TGI [7]: > 100 µM
GI50 [8]: 4.47 µM
TGI [8]: 24.1 µM
GI50 [9]: 30 µM
TGI [9]: > 100 µM
GI50 [10]: 7.93 µM
TGI [10]: > 100 µM
GI50 [11]: 8.21 µM
TGI [11]: 71.9 µM
GI50 [12]: 3.98 µM
TGI [12]: > 100 µM
GI50 [13]: 3.92 µM
TGI [13]: > 100 µM
GI50 [14]: 2.39 µM
TGI [14]: 7.36 µM
GI50 [15]: 7.45 µM
TGI [15]: > 100 µM
GI50 [16]: > 100 µM
TGI [16]: > 100 µM
GI50 [17]: 2.63 µM
TGI [17]: 9.74 µM
GI50 [18]: 3.03 µM
TGI [18]: 11.5 µM
GI50 [19]: 5.58 µM
TGI [19]: > 100 µM
GI50 [20]: 2.96 µM
TGI [20]: > 100 µM
GI50 [21]: 4.97 µM
TGI [21]: > 100 µM
GI50 [22]: 5.26 µM
TGI [22]: > 100 µM
GI50 [23]: 3.32 µM
TGI [23]: > 100 µM
GI50 [24]: 3.83 µM
TGI [24]: > 100 µM
GI50 [25]: 3.98 µM
TGI [25]: > 100 µM
GI50 [26]: 4.89 µM
TGI [26]: 88.3 µM
GI50 [27]: 1.58 µM
TGI [27]: 4.18 µM
GI50 [28]: 1.89 µM
TGI [28]: 5.47 µM
GI50 [29]: 4.26 µM
TGI [29]: > 100 µM
GI50 [30]: 7.53 µM
TGI [30]: > 100 µM
GI50 [31]: 17.7 µM
TGI [31]: > 100 µM
GI50 [32]: 3.98 µM
TGI [32]: > 100 µM
GI50 [33]: 2.74 µM
TGI [33]: 10.4 µM
GI50 [34]: 3.91 µM
TGI [34]: 38.2 µM
GI50 [35]: 3.43 µM
TGI [35]: 30.8 µM
GI50 [36]: > 100 µM
TGI [36]: > 100 µM
GI50 [37]: 6.45 µM
TGI [37]: 86.2 µM
GI50 [38]: 14.5 µM
TGI [38]: > 100 µM
GI50 [39]: 6.77 µM
TGI [39]: > 100 µM
GI50 [40]: 9.1 µM
TGI [40]: > 100 µM
GI50 [41]: 2.09 µM
TGI [41]: 17.6 µM
GI50 [42]: 14.3 µM
TGI [42]: > 100 µM
GI50 [43]: 3.92 µM
TGI [43]: > 100 µM
GI50 [44]: 3.42 µM
TGI [44]: 16.9 µM
GI50 [45]: 2.5 µM
TGI [45]: 7.27 µM
GI50 [46]: 6.38 µM
TGI [46]: > 100 µM
GI50 [47]: 2.87 µM
TGI [47]: > 100 µM
GI50 [48]: 7.74 µM
TGI [48]: 92 µM
GI50 [49]: > 100 µM
TGI [49]: > 100 µM
GI50 [50]: 11.4 µM
TGI [50]: > 100 µM
GI50 [51]: 1.66 µM
TGI [51]: 7.61 µM
GI50 [52]: 2.47 µM
TGI [52]: > 100 µM
GI50 [53]: 3.68 µM
TGI [53]: > 100 µM
GI50 [54]: 4.56 µM
TGI [54]: > 100 µM
GI50 [55]: > 100 µM
TGI [55]: > 100 µM
GI50 [56]: 4.46 µM
TGI [56]: > 100 µM
GI50 [57]: > 100 µM
TGI [57]: > 100 µM
GI50 [58]: 3.69 µM
TGI [58]: > 100 µM
GI50 [59]: 9.9 µM
TGI [59]: > 100 µM
